Source: paper PMC8398432 (Molecules, 2021)
Where two headings read alike, the source gives them in different places.

Tests used:
[1] = Stability in mouse liver microsomes; format: in vitro ADME
Procedure: Mouse Liver Microsome Assays. These assays were carried out as detailed previously.

mouse α4β2 nAChRs = target: T1, mouse α4β2 nAChRs (Mus musculus, UniProt O70174+Q9ERK7); experiment: Calcium 6 Ca2+ flux assay, neuro-2a cells transiently transfected with α4β2 nAChRs; format: cell-based
T1 construct: expressed in transfected cells; host or cells: mouse neuroblastoma-2a (neuro-2a) cells, transient transfection with Lipofectamine 3000

MDR1 = experiment: MDR1-MDCK permeability; conditions: dog; for efflux ratio at 120 min, 5 μM: MDCK-MDR1, pH 7.4; for recovery at 120 min, 5 μM: MDCK-MDR1, pH 7.4, Recovery (%), pH 7.4, 120 minutes
Procedure: (§1) MDR1-MDCK Permeability. Pharmacokinetic experiments with compounds were performed by Absorption Systems (Exton, PA, USA). MDR1-MDCK cell monolayers were grown to confluence on collagen-coated, microporous membranes in 12-well assay plates. The permeability assay buffer was Hanks’ balanced salt solution containing 10 mM HEPES and 15 mM glucose at a pH of 7.4. The buffer in the receiver chamber also contained 1% bovine serum albumin. The dosing solution concentration was 5 […]
(§2) μM of test article in the assay buffer. Cell monolayers were dosed on the apical side (A-to-B) or basolateral side (B-to-A) and incubated at 37°C with 5% CO2 in a humidified incubator. Samples were […]
(§3) chambers at 0 and 120 minutes; samples were taken from the receiver chambers at 120 minutes. Each determination was performed in duplicate. The flux of lucifer yellow was also measured post-experimentally for each monolayer to ensure no damage was inflicted to the cell monolayers during the flux period. All samples were assayed by LC-MS/MS using electrospray ionization. Analytical conditions were carried out as previously described (REF:Journigan ACS CN 2020). The apparent permeability (Papp) and percent recovery were calculated as follows:
(§4) Papp = (dCr /dt) × Vr/(A × C0) (1)
(§5) Percent Recovery = 100 × ((Vr × Crfinal) + (Vd × Cd final))/(Vd × C0) (2) […]
(§6) dCr /dt is the slope of the cumulative receiver concentration versus time in M sµ -1;
(§7) Vr is the volume of the receiver compartment in cm3;
(§8) Vd is the volume of the donor compartment in cm3;
(§9) A is the area of the insert (1.13 cm2 for 12-well);
(§10) C0 is the measured concentration of the donor chamber at time 0 in μM;
(§11) Crfinal is the cumulative receiver concentration in μM at the end of the incubation period; Cdfinal is the concentration of the donor in μM at the end of the incubation period.
(§12) Efflux ratio (ER) is defined as Papp (B-to-A) / Papp (A-to-B).
(§13) Brain Penetration Potential Classification:
(§14) Papp (A-to-B) ≥ 3.0 and ER < 3.0: High
(§15) Papp (A-to-B) ≥ 3.0 and 10 > ER ≥ 3.0: Moderate

hTRPM8 = test system: hTRPM8; parameters: method as in PMID 31850745; conditions: cited from earlier work
[2] = reported; ref 1 (supplement); cited from earlier work
C57BL/6J mice = experiment: Conditioned place preference (CPP) assay; format: in vivo, mouse
Procedure: CPP assays were completed in a three-chamber spatial place preference chamber (Harvard Apparatus, PanLab, dimensions: 47.5 × 27.5 × 47.5 cm) using male and female C57BL/6J mice. Time in chambers was recorded by motion tracking software (SMART 3.0). […] On day 1, a pre-test was completed wherein mice were placed in the central chamber and allowed free access to the apparatus for 20 min. Mice that spent >65% of the test in one chamber were excluded and the remaining mice were counterbalanced. For counterbalancing, mice were separated into groups of approximately equal bias, similar to previously published CPP methods. No exclusions were necessary for these studies. Following counterbalancing, no initial biases were noted. The mice received their designated drug injections on days 2, 4, 6, and 8, and received saline injections on days 3, 5, 7, and 9. Each conditioning period lasted 20 min. On day 10, a post-test was completed whereby the mice were again placed in the central chamber and allowed free access for 20 min. In total, 5 male and 5 female C57BL/6J mice, 3–5 months old, were used in the CPP assays for each treatment group. Time spent in the saline-paired chamber was subtracted from time spent in the drug-paired chamber to score the pre-test and post-test. CPP score (or change from baseline) was determined by subtracting the pre-test score from the post-test score. A significant positive CPP score is indicative of reward-related behavior, while a significant reduction is indicative of aversion-related behavior.
No sex differences were observed and data for males and females were combined (see Results for specifics). Data are expressed as a change in baseline preference, which was analyzed using a one-way ANOVA with a post hoc Tukey.

[3] = test system: MDR1-MDCK cell monolayers; experiment: in vitro
Procedure: as §1, §2, §3, §4, §5, §6, §7, §8, §9, §10, §11, §12, §13, §14, §15

[4] = in the presence of 100 µM nicotine

T1 sequence (O70174 31-629): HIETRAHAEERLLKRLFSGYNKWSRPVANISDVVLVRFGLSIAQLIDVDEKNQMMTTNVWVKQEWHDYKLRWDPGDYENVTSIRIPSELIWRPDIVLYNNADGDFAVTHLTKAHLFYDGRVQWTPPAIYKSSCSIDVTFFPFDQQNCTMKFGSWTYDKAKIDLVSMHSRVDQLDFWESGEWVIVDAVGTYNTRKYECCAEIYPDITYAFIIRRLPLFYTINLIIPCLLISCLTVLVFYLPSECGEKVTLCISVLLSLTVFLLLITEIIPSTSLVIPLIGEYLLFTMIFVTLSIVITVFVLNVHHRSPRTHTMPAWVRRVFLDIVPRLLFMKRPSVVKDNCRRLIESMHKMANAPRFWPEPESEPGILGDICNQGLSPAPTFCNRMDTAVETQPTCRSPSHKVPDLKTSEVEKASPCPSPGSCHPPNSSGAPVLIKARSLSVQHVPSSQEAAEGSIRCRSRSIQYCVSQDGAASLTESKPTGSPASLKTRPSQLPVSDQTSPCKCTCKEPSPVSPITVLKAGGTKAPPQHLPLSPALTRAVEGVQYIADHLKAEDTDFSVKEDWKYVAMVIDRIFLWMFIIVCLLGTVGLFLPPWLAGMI
T1 sequence (Q9ERK7 26-501): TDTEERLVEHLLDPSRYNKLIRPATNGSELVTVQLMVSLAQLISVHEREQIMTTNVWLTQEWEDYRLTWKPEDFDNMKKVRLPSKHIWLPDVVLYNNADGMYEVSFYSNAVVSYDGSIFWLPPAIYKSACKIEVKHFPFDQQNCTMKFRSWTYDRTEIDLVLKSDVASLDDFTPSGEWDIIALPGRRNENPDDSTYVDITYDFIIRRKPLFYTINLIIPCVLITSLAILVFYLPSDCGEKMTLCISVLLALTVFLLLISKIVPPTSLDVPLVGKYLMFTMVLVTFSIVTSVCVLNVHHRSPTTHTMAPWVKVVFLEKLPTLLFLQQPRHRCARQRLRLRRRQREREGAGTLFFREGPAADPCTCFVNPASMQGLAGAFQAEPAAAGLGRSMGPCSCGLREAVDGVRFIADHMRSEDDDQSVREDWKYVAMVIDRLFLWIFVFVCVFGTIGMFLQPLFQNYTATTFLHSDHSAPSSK

Compound `C[C@]12CC[C@H]3[C@@H](CCC4=CC(=O)CC[C@@]43C)[C@@H]1CC[C@@H]2O` [testosterone, reference compound] has a half-life ([1]; mouse liver microsomes) of 4.58 min and a microsomal CLint ([1]; mouse liver microsomes, read-out: CLint) of 302 µL/min/mg.

With `O=C(NC(C1CCCCC1)C1CCCCC1)c1ccc(-c2ccccc2)cc1` [VBJ098] the “activity as an agonist, PM, or antagonist” value (mouse α4β2 nAChRs; α4β2 nAChRs) was “no activity”.

With `C[C@H]1O[C@@H](O[C@H]2[C@@H](O)C[C@H](O[C@H]3[C@@H](O)C[C@H](O[C@H]4CC[C@@]5(C)[C@H](CC[C@@H]6[C@@H]5C[C@@H](O)[C@]5(C)[C@@H](C7=CC(=O)OC7)CC[C@]65O)C4)O[C@@H]3C)O[C@@H]2C)C[C@H](O)[C@@H]1O` [digoxin, reference compound] the efflux ratio at 120 min, 5 μM (MDR1) was 299, the Papp at 120 min, 5 μM (MDR1; MDCK-MDR1, pH 7.4, Papp average, A-to-B, 5 μM) was 0.0612 ×10⁻⁶ cm/s and the Papp at 120 min, 5 μM (MDR1; MDCK-MDR1, pH 7.4, Papp average, B-to-A, 5 μM) was 18.3 ×10⁻⁶ cm/s.

In the case of `O=C(NC1CCCCCCC1)c1ccc(-c2ccccc2)cc1` [VBJ051], the “concentration at which maximum increase occurs” value (mouse α4β2 nAChRs; [4]) is listed as 50 µM and the IC50 (hTRPM8) is listed as 62 ± 1 nM.

For `O=C(NC1CCc2ccccc2C1)c1ccc(-c2ccccc2)cc1` (stereo not drawn) [VBJ109], the “concentration at which maximum increase occurs” value (mouse α4β2 nAChRs; [4]) is listed as 50 µM and the IC50 (hTRPM8) is listed as 52 ± 1 nM.

In the case of `O=C(NC1CCCCC1)c1ccc(-c2ccccc2)cc1` [VBJ032], the “concentration at which maximum increase occurs” value (mouse α4β2 nAChRs; [4]) is listed as 50 µM and the IC50 (hTRPM8) is listed as 49000 ± 1000 nM.

In the case of `CN1CCC[C@H]1c1cccnc1` [nicotine, Nicotine ditartrate dihydrate, reference compound], the “T1/2 of nicotine in mice” value [2] is given as 6 to 7 min, the “place preference (in words)” value (C57BL/6J mice; 0.5 mg/kg nicotine, males and females combined, post hoc Tukey) is given as “significant place preference” and the CPP score (C57BL/6J mice; female mice, 0.5 mg/kg nicotine, intraperitoneal) is given as 127.5. It also gave a CPP score (C57BL/6J mice; male mice, 0.5 mg/kg nicotine, intraperitoneal) of 131.2.

Compound `O=C(NC1CCC2CCCCC2C1)c1ccc(-c2ccccc2)cc1` (stereo not drawn) [VBJ104] has a half-life ([1]; mouse, microsomes) of 11.3 min, a microsomal CLint ([1]; mouse, microsomes) of 122 µL/min/mg and a remaining at 0 h ([1]; mouse, microsomes) of 100%. It also gave a remaining at 10 min ([1]; mouse, microsomes) of 40.8%, a remaining at 20 min ([1]; mouse, microsomes) of 30.7% and a remaining at 0.5 h ([1]; mouse, microsomes) of 22.5%. The remaining at 1 h ([1]; mouse, microsomes) was 10.3%, the Emax (mouse α4β2 nAChRs; N2a, read-out: Max Efficacy (Normalized to 100 µM Nicotine), in the presence of 100 µM nicotine, mean ± SEM) was 361% and the “concentration at which maximum increase occurs” value (mouse α4β2 nAChRs; [4]) was 100 µM. The “Max Efficacy (Normalized to 100 µM Nicotine)” value (mouse α4β2 nAChRs; in the presence of 100 µM nicotine, mean ± SEM) was 360.7 ± 37.7%, the IC50 (hTRPM8) was 6 ± 1 nM and the “Brain Penetration Classification” value ([3]; MDCK-MDR1) was “Low”. The “MDR1-MDCK permeability efflux ratio (in words)” value ([3]; MDCK-MDR1) was “low”, the Papp average ([3]; dog, MDCK-MDR1, 120 min, 5 μM, pH 7.4) was 1.22 10-6 cm/s and the efflux ratio at 120 min, 5 μM (MDR1) was 0.685. The Papp at 120 min, 5 μM (MDR1; MDCK-MDR1, pH 7.4, Papp R2) was 1.67 ×10⁻⁶ cm/s, the Papp at 120 min, 5 μM (MDR1; MDCK-MDR1, pH 7.4, Papp average) was 1.79 ×10⁻⁶ cm/s and the recovery at 120 min, 5 μM (MDR1; A-to-B, 5 μM) was 70.8%. The recovery at 120 min, 5 μM (MDR1; B-to-A, 5 μM) was 86.9%, the “reward-related behavior (in words)” value (C57BL/6J mice; 0.5 mg/kg nicotine plus 0.5 mg/kg VBJ104, compared to nicotine, p < 0.05) was “significant increase in reward-related behavior” and the “reward-related behavior (in words)” value (C57BL/6J mice; 0.5 mg/kg nicotine plus 1.0 mg/kg VBJ104, p < 0.0001 vs saline, not vs nicotine alone) was “significant CPP compared to saline”. For the same compound, the CPP score (C57BL/6J mice; female mice, 0.5 mg/kg nicotine plus 0.5 mg/kg VBJ104, intraperitoneal) was 269.8 and the CPP score (C57BL/6J mice; male mice, 0.5 mg/kg nicotine plus 0.5 mg/kg VBJ104, intraperitoneal) was 261.5.
